Assay results as given in PubChem BioAssay AID504777 (National Center for Advancing Translational Sciences (NCATS), 2011).

Test system: mouse liver microsomes without NADPH, LC-MS/MS
Assay: Enhancers of SMN2 Splice Variant Expression: Metabolic Stability in absence of NADPH Profiling
Details: at 1 µM; hits give high values
Source text: Spinal muscular atrophy (SMA) is caused by insufficient levels of the survival motor neuron protein SMN. The SMN locus on chromosome 5q13 contains two inverted copies of SMN called SMN1 and SMN2 which are 99% identical at the amino acid level. SMN1 is a fully functional protein and SMN2 skips exon 7 90% of the time. Skipping of exon 7 produces non-functional protein product. 10% of the SMN2 protein includes exon 7 and is fully functional. In the SMA disease state, mutations in the SMN1 locus are the cause of the disease state. Because only 10% of SMN2 is of the fully functional form, it is not sufficient to overcome the deficiency produced by the loss of the SMN1 product. A therapy that either increase the amount of SMN2 product made or to increase the inclusion of exon 7 has been proposed for the treatment of SMA. Mouse liver microsomes are generated from lysed mouse liver. Liver microsomes contain many drug metabolizing enzymes, including Cytochome P-450s and flavin-containing monooxygenases. Because drug metabolism is major way of drug clearance, this is an important result. NIH Chemical Genomics Center [NCGC] NIH Molecular Libraries Probe Production centers Network [MLPCN] MLPCN Grant: R03 MH084179-01 Assay Submitter (PI): Elliot Androphy
1uM of compound in incubated in mouse liver microsome; the reference compound is ketanserin. […] Samples are analyzed with LC-MS/MS.

- percent remaining: 95%
SMILES: O=C(O)C1CCN(c2nc(-c3ccc(Br)cc3)cs2)CC1
